Results reported in patent publication US8334316B2, “Substituted organosulfur compounds and methods of using thereof” (ACEA Biosciences, Inc., priority 2004, dated 2012).

Assay: Acute toxicity, single intravenous injection, LD50 (Bliss method) in Kunming mice
Format: in vivo
Description: To evaluate the in vivo acute, intravenous toxicity of DBTS and ACEA100108 (a derivative of DBTS, see Table 33), the experiments were performed in non-tumor bearing, normal Kunming mice by monitoring the acute response of mice to a single dose of DBTS or ACEA100108 via intravenous injection (i.v.). The number of death for the treated mice was monitored and recorded. LD50 values for these compounds were calculated. Details of the study are provided below.
The experiments to test DBTS and ACEA100108 acute toxicity were performed in mice. The test mice were randomly divided into six groups (five dosing groups and one control group). Each group contained 20 Kunming strain mice, and among them, 50% were male and 50% were female. After administration of a single dose of DBTS or ACEA100108 via intravenous injection (i.v.), the acute response to DBTS or ACEA100108 compound, and the death of the treated mice during the first two weeks were monitored and recorded. The LD50 value was calculated using the Bliss method.
Materials and Method. The test chemical compound were DBTS and ACEA100108, which were dissolved into hydrogenated castor oil in the pre-warmed water bath and made as a 20 mg/ml solution. The solution was further diluted to desired experiment concentrations with the normal saline. The administration volume was 0.5 ml i.v. per mouse and the injection speed was 0.5 ml/0.5 min.
The experimental mice were Kunming strain, provided by the Experimental Animal Department, Shanghai Pharmaceutical Industry Institute. The certificate number of the facility was Animal Facility Certification Number 107. The average weight of the mice was 18-20 gram. Each test group contained 20 Kunming strain mice, and among them, 10 mice were male and 10 mice were female. […] The mice in the control group were only given the same volume of the solvent, which were diluted hydrogenated castor oil. All the testing mice were given a single intravenous injection of DBTS, ACEA100108, or the solvent that served as the control at the injection speed of 0.5 ml/0.5 min. The acute response to DBTS, ACEA100108 or the solvent immediately after the administration, as well as weight change, and the death within the first two weeks of the administration were monitored and recorded. The intravenous injection LD50 values in mice were calculated using the Bliss method.

[1] = 50% male, 50% female, 163.8 mg/kg, 20 animals
[2] = 50% male, 50% female, 204.8 mg/kg, 20 animals
[3] = 50% male, 50% female, 256 mg/kg, 20 animals
[4] = 50% male, 50% female, 320 mg/kg, 20 animals
[5] = 50% male, 50% female, 400 mg/kg, 20 animals
[6] = 50% male, 50% female, 500 mg/kg, 20 animals
[7] = Female, 163.8 mg/kg, 10 animals
[8] = Female, 204.8 mg/kg, 10 animals

Structure (SMILES): Fc1ccc(CSSSCc2ccc(F)cc2)cc1 [ACEA100108, Di(p-fluorobenzyl)trisulfide]
- Dead animals on day 1 after the single intravenous injection [1]: 0
- Dead animals on day 2 after the single intravenous injection [1]: 0
- Dead animals on day 3 after the single intravenous injection [1]: 0
- Dead animals on day 4 after the single intravenous injection [1]: 0
- Dead animals on day 5 after the single intravenous injection [1]: 0
- Dead animals on day 6 after the single intravenous injection [1]: 0
- Dead animals on day 7 after the single intravenous injection [1]: 0
- Dead animals on day 8 after the single intravenous injection [1]: 0
- Dead animals on day 9 after the single intravenous injection [1]: 0
- Dead animals on days 10-14 after the single intravenous injection [1]: 0 - - - 0
- Percentage of dead animals [1]: 0%
- Dead animals on day 1 after the single intravenous injection [2]: 0
- Dead animals on day 2 after the single intravenous injection [2]: 0
- Dead animals on day 3 after the single intravenous injection [2]: 1
- Dead animals on day 4 after the single intravenous injection [2]: 0
- Dead animals on day 5 after the single intravenous injection [2]: 0
- Dead animals on day 6 after the single intravenous injection [2]: 0
- Dead animals on day 7 after the single intravenous injection [2]: 0
- Dead animals on day 8 after the single intravenous injection [2]: 0
- Dead animals on day 9 after the single intravenous injection [2]: 0
- Dead animals on days 10-14 after the single intravenous injection [2]: 0 - - - 0
- Percentage of dead animals [2]: 5%
- Dead animals on day 1 after the single intravenous injection [3]: 0
- Dead animals on day 2 after the single intravenous injection [3]: 4
- Dead animals on day 3 after the single intravenous injection [3]: 0
- Dead animals on day 4 after the single intravenous injection [3]: 2
- Dead animals on day 5 after the single intravenous injection [3]: 0
- Dead animals on day 6 after the single intravenous injection [3]: 0
- Dead animals on day 7 after the single intravenous injection [3]: 0
- Dead animals on day 8 after the single intravenous injection [3]: 0
- Dead animals on day 9 after the single intravenous injection [3]: 0
- Dead animals on days 10-14 after the single intravenous injection [3]: 0 - - - 0
- Percentage of dead animals [3]: 30%
- Dead animals on day 2 after the single intravenous injection [4]: 2
- Dead animals on day 3 after the single intravenous injection [4]: 5
- Dead animals on day 4 after the single intravenous injection [4]: 2
- Dead animals on day 5 after the single intravenous injection [4]: 0
- Dead animals on day 6 after the single intravenous injection [4]: 0
- Dead animals on day 7 after the single intravenous injection [4]: 0
- Dead animals on day 8 after the single intravenous injection [4]: 0
- Dead animals on day 9 after the single intravenous injection [4]: 0
- Dead animals on days 10-14 after the single intravenous injection [4]: 0 - - - 0
- Percentage of dead animals [4]: 45%
- Dead animals on day 2 after the single intravenous injection [5]: 8
- Dead animals on day 3 after the single intravenous injection [5]: 5
- Dead animals on day 4 after the single intravenous injection [5]: 0
- Dead animals on day 5 after the single intravenous injection [5]: 2
- Dead animals on day 6 after the single intravenous injection [5]: 0
- Dead animals on day 7 after the single intravenous injection [5]: 0
- Dead animals on day 8 after the single intravenous injection [5]: 0
- Dead animals on day 9 after the single intravenous injection [5]: 0
- Dead animals on days 10-14 after the single intravenous injection [5]: 0 - - - 0
- Percentage of dead animals [5]: 75%
- Dead animals on day 1 after the single intravenous injection [6]: 20
- Dead animals on day 2 after the single intravenous injection [6]: 0
- Dead animals on day 3 after the single intravenous injection [6]: 0
- Dead animals on day 4 after the single intravenous injection [6]: 0
- Dead animals on day 5 after the single intravenous injection [6]: 0
- Dead animals on day 6 after the single intravenous injection [6]: 0
- Dead animals on day 7 after the single intravenous injection [6]: 0
- Dead animals on day 8 after the single intravenous injection [6]: 0
- Dead animals on day 9 after the single intravenous injection [6]: 0
- Dead animals on days 10-14 after the single intravenous injection [6]: 0 - - - 0
- Percentage of dead animals [6]: 100%
- Dead animals on day 1 after the single intravenous injection [7]: 0
- Dead animals on day 2 after the single intravenous injection [7]: 0
- Dead animals on day 3 after the single intravenous injection [7]: 0
- Dead animals on day 4 after the single intravenous injection [7]: 0
- Dead animals on day 5 after the single intravenous injection [7]: 0
- Dead animals on day 6 after the single intravenous injection [7]: 0
- Dead animals on day 7 after the single intravenous injection [7]: 0
- Dead animals on day 8 after the single intravenous injection [7]: 0
- Dead animals on day 9 after the single intravenous injection [7]: 0
- Dead animals on days 10-14 after the single intravenous injection [7]: 0 - - - 0
- Percentage of dead animals [7]: 0%
- Average animal weight, End (Female, 163.8 mg/kg, Beginning 19.6): 24.2
- Dead animals on day 1 after the single intravenous injection [8]: 0
- Dead animals on day 2 after the single intravenous injection [8]: 0
- Dead animals on day 3 after the single intravenous injection [8]: 0
- Dead animals on day 4 after the single intravenous injection [8]: 0
- Dead animals on day 5 after the single intravenous injection [8]: 0
- Dead animals on day 6 after the single intravenous injection [8]: 0
- Dead animals on day 7 after the single intravenous injection [8]: 0
- Dead animals on day 8 after the single intravenous injection [8]: 0
- Dead animals on day 9 after the single intravenous injection [8]: 0
- Dead animals on days 10-14 after the single intravenous injection [8]: 0 - - - 0
- Percentage of dead animals [8]: 0%
- Average animal weight, End (Female, 204.8 mg/kg, Beginning 20.5): 24.3
- Dead animals on day 1 after the single intravenous injection (Female, 256 mg/kg, 10 animals): 0
- Dead animals on day 2 after the single intravenous injection (Female, 256 mg/kg, 10 animals): 2
- Dead animals on day 3 after the single intravenous injection (Female, 256 mg/kg, 10 animals): 0
- Dead animals on day 4 after the single intravenous injection (Female, 256 mg/kg, 10 animals): 1
- Dead animals on day 5 after the single intravenous injection (Female, 256 mg/kg, 10 animals): 0
- Dead animals on day 6 after the single intravenous injection (Female, 256 mg/kg, 10 animals): 0
- Dead animals on day 7 after the single intravenous injection (Female, 256 mg/kg, 10 animals): 0
- Dead animals on day 8 after the single intravenous injection (Female, 256 mg/kg, 10 animals): 0
- Dead animals on day 9 after the single intravenous injection (Female, 256 mg/kg, 10 animals): 0
- Dead animals on days 10-14 after the single intravenous injection (Female, 256 mg/kg, 10 animals): 0 - - - 0
- Percentage of dead animals (Female, 256 mg/kg, 10 animals): 30%
- Average animal weight, End (Female, 256 mg/kg, Beginning 20.1): 24.6
- Dead animals on day 1 after the single intravenous injection (Female, 320 mg/kg, 10 animals): 2
- Dead animals on day 2 after the single intravenous injection (Female, 320 mg/kg, 10 animals): 2
- Dead animals on day 3 after the single intravenous injection (Female, 320 mg/kg, 10 animals): 1
- Dead animals on day 4 after the single intravenous injection (Female, 320 mg/kg, 10 animals): 0
- Dead animals on day 5 after the single intravenous injection (Female, 320 mg/kg, 10 animals): 0
- Dead animals on day 6 after the single intravenous injection (Female, 320 mg/kg, 10 animals): 0
- Dead animals on day 7 after the single intravenous injection (Female, 320 mg/kg, 10 animals): 0
